≈ marks a conversion by molar mass, not a printed value.
Legend:
[1] = system: HUVEC; experiment: Antiproliferative activity against HUVEC cells after 72 hrs; format: functional, cell-based; settings: Homo sapiens
[2] = system: HUVEC; experiment: Cell viability of HUVEC cells at 20 ug/ml; format: functional, Homo sapiens

Structure (SMILES)	EC50 [1] [µg/mL]	Activity [2] [%]
CC(C)=CCC[C@](C)(O)[C@H]1CC[C@]2(C)[C@@H]1[C@H](O)C[C@@H]1[C@@]3(C)CC[C@H](O)C(C)(C)[C@@H]3[C@@H](O)C[C@]12C	6.64 (≈ 13.9 µM)	16.5
CC(C)=CCC[C@](C)(O)[C@H]1CC[C@]2(C)[C@@H]1[C@H](O)C[C@@H]1[C@@]3(C)CC[C@H](O)C(C)(C)[C@@H]3CC[C@]12C	2.16 (≈ 4.69 µM)	16.5

From ChEMBL document CHEMBL1144819, “Antitumor agents. 261. 20(S)-protopanaxadiol and 20(s)-protopanaxatriol as antiangiogenic agents and total assignment of (1)H NMR spectra” (J Nat Prod, 2008)
